Measurements published in paper PMC8878317, “Chemogenomics identifies acetyl-coenzyme A synthetase as a target for malaria treatment and prevention” (Cell Chemical Biology, 2022).
Like-named read-outs stand apart in the source and are kept apart here.

Columns and labels:
[1] = system: HepG2 cells; experiment: HepG2 cytotoxicity; assay type: cell-based; conditions: Homo sapiens, mammalian cell cytotoxicity
[2] = system: P. falciparum NF54-PfAcAS-cKD; experiment: cKD compound susceptibility assay (luminescence, 72 hr), PfAcAS cKD line; assay type: cell-based; conditions: Plasmodium falciparum
Description: We used CRISPR-Cas9 to modify the native PfAcAS locus and install the linear pSN054 donor vector ([Nasamu et al., 2020]) that incorporates a C-terminal V5 and 2xHA-tags, a 10x aptamer array, and the TetR-DOZI expression cassette containing the blasticidin S deaminase gene, the reporter gene Renilla luciferase (RLuc), and the fusion proteins TetR-DOZI ([Ganesan et al., 2016]). The right homology region (RHR) was PCR amplified and inserted into pSN054 using the I-SceI restriction site. Fragments corresponding to the left homology region (LHR) fused to the re-codonized 3′-end of the gene (bp 2710–2991) as well as the target-specifying guide RNA sequence were synthesized using the BioXP 3200 System (SGI-DNA) and cloned into pSN054 using restriction sites FseI/AsisI and AflII, respectively. Donor vector generation was carried out via Gibson assembly, and the final construct was confirmed by restriction digests and Sanger sequencing. Primers used in this study are listed in the key resources table.
Transfection into Cas9-and T7 RNA polymerase-expressing NF54 parasites was carried out by preloading erythrocytes with the AcAS_pSN054 plasmid as described previously ([Deitsch et al., 2001]). Briefly, 50–100 μg of purified plasmid DNA were mixed with human red blood cells in 0.2 cm cuvettes and subjected to 8 square wave electroporation pulses of 365 V for 1 ms each, separated by 0.1 s. The DNA preloaded red blood cells were inoculated with schizont-stage parasites (e.g. NF54attB, NF54:pCRISPR) to achieve starting parasitemias ≤1% in RPMI 1640 Complete media. Cultures were maintained in 500 nM anhydrotetracycline (aTc; Sigma-Aldrich 37,919) and 2.5 μg/mL Blasticidin S (RPI Corp B12150–0.1). Emergence of transfectants was monitored via Giemsa smears and RLuc measurements. Clonal parasites were obtained by limiting dilution ([Rosario, 1981]).
Synchronous ring-stage, aptamer-regulated PfAcAS and control parasite lines were resuspended in varying aTc concentrations (high = 50 nM, low = 1 nM, and no aTc) and distributed into the drug plate. DMSO carrier and chloroquine (200 nM) wells served as positive and negative controls.

[3] = target: PfAcAS WT (Plasmodium falciparum, UniProt C6KTB4); experiment: EnzChek assay, recombinant PfAcAS WT (steady-state kinetics and IC50); assay type: biochemical, P. falciparum
Description: Steady-state kinetic measurements were conducted at room temperature using a PheraStar plate reader (BMG). The first step of the reaction of PfAcAS, which produces inorganic pyrophosphate (PPi) that is converted to two molecules of inorganic phosphate using a pyrophosphatase enzyme, was continuously monitored using the EnzChek Phosphate Assay Kit, which gives an absorbance readout at 360 nm (Figure 4A) ([Webb, 1992]). […] By adding CoA, the reaction rapidly proceeds to the second step resulting in further release of pyrophosphate, making the EnzChek assay a suitable option to continuously monitor the activity of PfAcAS. Typical kinetic assays were carried out in clear, flat-bottom, polystyrene, 384-well plates (Greiner) in an 80 μL reaction volume containing 100 mM HEPES (pH7.4), 100 mM NaCl, 250 mM KCl, 50 mM MgCl2, 1 mM DTT, 0.004% Tween 20, 0.5 U/mL pyrophosphatase, 0.1 mM MESG, 0.5 U/mL PNP, 2 mM ATP, 2 mM acetate, 0.5 mM CoA and 5 nM recombinant PfAcAS WT or 10 nM recombinant PfAcAS A597V or T648M. Assays were performed by adding 40 μL of a 2-times concentrated substrate mixture including MESG to all wells, and the reactions started by adding 40 μL of a 2-times concentrated reaction mixture containing all other components. The reactions were carried out for 2 to 4 hr with absorbance readings at 360 nm every two to four minutes. Reaction rates were extracted from the linear phase of activity, usually using 10 to 20 points between times of 30 and 100 min of the reactions. Using a phosphate standard curve obtained under the same buffer conditions used for the PfAcAS reactions (Figure S5A), the rates were then converted to velocity per second, conversion of one nanomolar of phosphate, per nanomolar of enzyme, per second. The substrates Km values were determined by varying the concentration of one of the substrates at saturating concentration of the other two substrates. Steady-state data were fitted using the nonlinear, least-squares, curve-fitting programs of Sigma-Plot for Windows, version 14.0. Individual saturation curves were fit to Equation 1(Equation 1) v=VS/K+S where V is the maximal velocity, S is the substrate concentration and K is the Michaelis constant for the substrate (Km). Individual saturation curves displaying substrate inhibition were fit to Equation 2(Equation 2) v=VS/K+S×(1+S/Ks) where Ks is the substrate inhibition constant.
To determine the steady-state inhibition parameters and patterns associated with both inhibitors, PfAcAS activity was studied in the presence of variable concentrations of one substrate, ATP, acetate or CoA, fixed saturating concentration of the other two substrates (acetate and CoA, ATP and CoA, or ATP and acetate) and several fixed concentrations of inhibitor. Assay ready plates containing different concentrations of inhibitor were prepared using an Echo 550 acoustic dispenser (Labcyte Inc.). The assays were carried out as described in the previous section. […] For better comparison between both inhibitors and proteins, the ymin was fixed to zero and the ymax to 100. Inhibition data showing linear, competitive patterns in double-reciprocal plots were fit to Equation 4(Equation 4) v=VS/K(1+I/Ki)+S where Ki is the dissociation constant for the enzyme-inhibitor complex. Inhibition data showing linear, mixed inhibition patterns in double-reciprocal plots were fit to Equation 5(Equation 5) v=VS/K(1+I/Kis)+S(1+I/Kii) where Kis is the dissociation constant for the free enzyme-inhibitor complex and Kii is the dissociation constant for the enzyme-substrate-inhibitor complex. Inhibition data showing linear, uncompetitive patterns in double-reciprocal plots were fit to Equation 6(Equation 6) v=VS/K+S(1+I/Ki)

[4] = NF54, read-out: PfAcAS cKD EC50 ± SD (nM) (1nM aTc)
[5] = NF54, read-out: PfAcAS cKD EC50 ± SD (nM) (50nM aTc)

Sequence of PfAcAS WT (C6KTB4 entry or part of it): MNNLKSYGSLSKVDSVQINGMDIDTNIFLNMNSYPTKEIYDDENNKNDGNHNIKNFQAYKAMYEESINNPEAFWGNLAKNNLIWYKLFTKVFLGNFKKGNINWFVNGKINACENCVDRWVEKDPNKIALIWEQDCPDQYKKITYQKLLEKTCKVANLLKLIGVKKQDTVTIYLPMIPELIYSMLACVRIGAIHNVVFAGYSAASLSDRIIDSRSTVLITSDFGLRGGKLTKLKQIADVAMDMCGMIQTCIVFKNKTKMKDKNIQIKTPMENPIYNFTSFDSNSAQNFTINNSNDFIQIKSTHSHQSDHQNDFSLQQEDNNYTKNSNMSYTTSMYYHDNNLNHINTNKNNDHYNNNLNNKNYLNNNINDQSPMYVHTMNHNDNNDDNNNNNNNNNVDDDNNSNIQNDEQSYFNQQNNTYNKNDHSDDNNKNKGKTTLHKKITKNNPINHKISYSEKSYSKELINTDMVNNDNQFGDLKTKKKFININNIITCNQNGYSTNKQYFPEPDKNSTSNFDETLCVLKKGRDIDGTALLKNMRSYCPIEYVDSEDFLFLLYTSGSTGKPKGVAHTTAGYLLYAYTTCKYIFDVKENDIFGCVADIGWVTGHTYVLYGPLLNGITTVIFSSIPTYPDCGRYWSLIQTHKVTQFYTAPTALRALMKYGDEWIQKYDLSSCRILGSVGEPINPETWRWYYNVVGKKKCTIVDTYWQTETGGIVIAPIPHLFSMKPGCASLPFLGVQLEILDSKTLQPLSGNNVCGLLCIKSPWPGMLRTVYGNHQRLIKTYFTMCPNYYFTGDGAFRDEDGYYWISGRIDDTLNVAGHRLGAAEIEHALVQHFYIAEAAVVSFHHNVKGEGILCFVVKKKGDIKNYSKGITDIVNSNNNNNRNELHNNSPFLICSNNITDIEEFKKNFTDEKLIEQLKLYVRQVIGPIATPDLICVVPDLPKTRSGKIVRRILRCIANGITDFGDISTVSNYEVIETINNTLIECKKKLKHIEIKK

CCN(CC)S(=O)(=O)c1ccc(Cl)c(C(=O)Nc2ccc3nc(C)sc3c2)c1 [MMV019721]
EC50 [1]: > 50000 nM
EC50 [2, 4]: 7 ± 1.2 nM
EC50 [2, 5]: 43 ± 8.5 nM
Hill, AcAS WT [3]: 0.85 ± 0.04
IC50 [3]: 73 ± 4 nM

O=C(NNC(=O)c1csnn1)c1ccc(Cl)cc1 [MMV084978]
EC50 [1]: > 50000 nM
EC50 [2, 4]: 45 ± 4.4 nM
EC50 [2, 5]: 240 ± 64 nM
Hill, AcAS WT [3]: 0.85 ± 0.06
IC50 [3]: 370 ± 40 nM
